# In the supplement of paper PMC10307832:
# Columns and labels:
# Assay in all cases: relative viability (nuclei count vs DMSO), 5 days (fraction); higher = more cells survive
# HCC-78 = system: HCC-78
# Outline: (§1)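 A single step with final 0.05% Triton X-100, 1% formaldehyde and 1 ug/ml Hoechst fixed the cells and stained nuclei 5 days after treatment. Lung cancer cell lines in 1536-well plates had been treated by pin tool the day after seeding with one drug alone or a fixed anchor-drug dose plus five library-drug doses (not always all listed) in √10 steps, and nuclei were counted on 4× images. Relative viability is the ratio of nuclei in treated wells to nuclei in vehicle wells, taken as the median of duplicate plates.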
# BEN = system: BEN
# Outline: as §1
# LK-2 = system: LK-2
# Outline: as §1
# PC-3 [JPC-3] = system: PC-3 [JPC-3]
# Outline: as §1
# NCI-H358 = system: NCI-H358
# Outline: as §1
# NCI-H596 = system: NCI-H596
# Outline: as §1
# NCI-H1944 = system: NCI-H1944
# Outline: as §1
# NCI-H650 = system: NCI-H650
# Outline: as §1
# LXF-289 = system: LXF-289
# Outline: as §1
# NCI-H838 = system: NCI-H838
# Outline: as §1
# NCI-H661 = system: NCI-H661
# Outline: as §1
# NCI-H1651 = system: NCI-H1651
# Outline: as §1
# NCI-H1975 = system: NCI-H1975
# Outline: as §1
# NCI-H1666 = system: NCI-H1666
# Outline: as §1
# NCI-H2087 = system: NCI-H2087
# Outline: as §1
# LU99A = system: LU99A
# Outline: as §1
# LC-2-ad = system: LC-2-ad
# Outline: as §1
# SK-MES-1 = system: SK-MES-1
# Outline: as §1
# NCI-H1355 = system: NCI-H1355
# Outline: as §1
# LCLC-97TM1 = system: LCLC-97TM1
# Outline: as §1
smiles,measurement,setting,value
Cc1sc2c(c1C)C(c1ccc(Cl)cc1)=N[C@@H](CC(=O)OC(C)(C)C)c1nnc(C)n1-2 [JQ1] + C[C@]1(O)C[C@@H](c2nc(-c3ccc4ccc(-c5ccccc5)nc4c3)c3c(N)nccn32)C1 [Linsitinib] (partner 1 µM),relative viability,HCC-78; first compound 0.04 µM,0.536
same,relative viability,HCC-78; first compound 0.1265 µM,0.438
same,relative viability,HCC-78; first compound 0.4 µM,0.403
same,relative viability,HCC-78; first compound 1.265 µM,0.255
same,relative viability,HCC-78; first compound 4 µM,0.249
same,relative viability,BEN; first compound 0.04 µM,0.886
same,relative viability,BEN; first compound 0.1265 µM,0.742
same,relative viability,BEN; first compound 0.4 µM,0.524
same,relative viability,BEN; first compound 1.265 µM,0.347
same,relative viability,BEN; first compound 4 µM,0.224
same,relative viability,LK-2; first compound 0.04 µM,0.393
same,relative viability,LK-2; first compound 0.1265 µM,0.662
same,relative viability,LK-2; first compound 0.4 µM,0.233
same,relative viability,LK-2; first compound 1.265 µM,0.176
same,relative viability,LK-2; first compound 4 µM,0.109
same,relative viability,PC-3 [JPC-3]; first compound 0.04 µM,0.942
same,relative viability,PC-3 [JPC-3]; first compound 0.1265 µM,0.998
same,relative viability,PC-3 [JPC-3]; first compound 0.4 µM,1.06
same,relative viability,PC-3 [JPC-3]; first compound 1.265 µM,0.79
same,relative viability,PC-3 [JPC-3]; first compound 4 µM,0.666
same,relative viability,NCI-H358; first compound 0.04 µM,0.645
same,relative viability,NCI-H358; first compound 0.1265 µM,0.829
same,relative viability,NCI-H358; first compound 0.4 µM,0.715
same,relative viability,NCI-H358; first compound 1.265 µM,0.442
same,relative viability,NCI-H358; first compound 4 µM,0.45
same,relative viability,NCI-H596; first compound 0.04 µM,1.22
same,relative viability,NCI-H596; first compound 0.1265 µM,1.03
same,relative viability,NCI-H596; first compound 0.4 µM,0.587
same,relative viability,NCI-H596; first compound 1.265 µM,0.418
same,relative viability,NCI-H596; first compound 4 µM,0.361
same,relative viability,NCI-H1944; first compound 0.04 µM,1.15
same,relative viability,NCI-H1944; first compound 0.1265 µM,0.874
same,relative viability,NCI-H1944; first compound 0.4 µM,0.922
same,relative viability,NCI-H1944; first compound 1.265 µM,0.623
same,relative viability,NCI-H1944; first compound 4 µM,0.557
same,relative viability,NCI-H650; first compound 0.04 µM,0.913
same,relative viability,NCI-H650; first compound 0.1265 µM,0.507
same,relative viability,NCI-H650; first compound 0.4 µM,0.503
same,relative viability,NCI-H650; first compound 1.265 µM,0.291
same,relative viability,NCI-H650; first compound 4 µM,0.26
same,relative viability,LXF-289; first compound 0.04 µM,0.986
same,relative viability,LXF-289; first compound 0.1265 µM,0.968
same,relative viability,LXF-289; first compound 0.4 µM,0.903
same,relative viability,LXF-289; first compound 1.265 µM,0.761
same,relative viability,LXF-289; first compound 4 µM,0.34
same,relative viability,NCI-H838; first compound 0.04 µM,0.954
same,relative viability,NCI-H838; first compound 0.1265 µM,0.543
same,relative viability,NCI-H838; first compound 0.4 µM,0.74
same,relative viability,NCI-H838; first compound 1.265 µM,0.307
same,relative viability,NCI-H838; first compound 4 µM,0.229
same,relative viability,NCI-H661; first compound 0.04 µM,0.635
same,relative viability,NCI-H661; first compound 0.1265 µM,0.512
same,relative viability,NCI-H661; first compound 0.4 µM,0.391
same,relative viability,NCI-H661; first compound 1.265 µM,0.305
same,relative viability,NCI-H661; first compound 4 µM,0.352
same,relative viability,NCI-H1651; first compound 0.04 µM,0.776
same,relative viability,NCI-H1651; first compound 0.1265 µM,0.871
same,relative viability,NCI-H1651; first compound 0.4 µM,0.797
same,relative viability,NCI-H1651; first compound 1.265 µM,0.433
same,relative viability,NCI-H1651; first compound 4 µM,0.468
same,relative viability,NCI-H1975; first compound 0.04 µM,0.864
same,relative viability,NCI-H1975; first compound 0.1265 µM,0.835
same,relative viability,NCI-H1975; first compound 0.4 µM,0.723
same,relative viability,NCI-H1975; first compound 1.265 µM,0.434
same,relative viability,NCI-H1975; first compound 4 µM,0.379
same,relative viability,NCI-H1666; first compound 0.04 µM,0.811
same,relative viability,NCI-H1666; first compound 0.1265 µM,0.844
same,relative viability,NCI-H1666; first compound 0.4 µM,0.842
same,relative viability,NCI-H1666; first compound 1.265 µM,0.475
same,relative viability,NCI-H1666; first compound 4 µM,0.484
same,relative viability,NCI-H2087; first compound 0.04 µM,1.02
same,relative viability,NCI-H2087; first compound 0.4 µM,0.69
same,relative viability,NCI-H2087; first compound 1.265 µM,0.456
same,relative viability,NCI-H2087; first compound 4 µM,0.508
same,relative viability,LU99A; first compound 0.04 µM,0.573
same,relative viability,LU99A; first compound 0.1265 µM,0.516
same,relative viability,LU99A; first compound 0.4 µM,0.325
same,relative viability,LU99A; first compound 1.265 µM,0.292
same,relative viability,LU99A; first compound 4 µM,0.202
same,relative viability,LC-2-ad; first compound 0.04 µM,0.753
same,relative viability,LC-2-ad; first compound 0.1265 µM,0.773
same,relative viability,LC-2-ad; first compound 0.4 µM,0.463
same,relative viability,LC-2-ad; first compound 1.265 µM,0.253
same,relative viability,LC-2-ad; first compound 4 µM,0.265
same,relative viability,SK-MES-1; first compound 0.04 µM,1.02
same,relative viability,SK-MES-1; first compound 0.1265 µM,0.752
same,relative viability,SK-MES-1; first compound 0.4 µM,0.862
same,relative viability,SK-MES-1; first compound 1.265 µM,0.332
same,relative viability,SK-MES-1; first compound 4 µM,0.374
same,relative viability,NCI-H1355; first compound 0.04 µM,0.813
same,relative viability,NCI-H1355; first compound 0.1265 µM,0.817
same,relative viability,NCI-H1355; first compound 0.4 µM,0.814
same,relative viability,NCI-H1355; first compound 1.265 µM,0.574
same,relative viability,NCI-H1355; first compound 4 µM,0.351
same,relative viability,LCLC-97TM1; first compound 0.1265 µM,0.181
same,relative viability,LCLC-97TM1; first compound 0.4 µM,0.212
same,relative viability,LCLC-97TM1; first compound 1.265 µM,0.125
same,relative viability,LCLC-97TM1; first compound 4 µM,0.156
